ChEMBL document CHEMBL4602694, “Suppression of Drug-Resistant Non-Small-Cell Lung Cancer with Inhibitors Targeting Minichromosomal Maintenance Protein” (J Med Chem, 2020)
The source made the active and inactive calls. The rule behind the calls is not given here.

What was measured:
[1] = molecular target: DNA replication licensing factor MCM2 (Homo sapiens) (UniProt P49736); experiment: Binding affinity to MCM2 in human NCI-H1975 cells assessed as reduction in MCM2 level measured up to 9 hrs by immunoblot analysis; format: cell-based
Chain of DNA replication licensing factor MCM2 (Homo sapiens) (P49736 whole entry): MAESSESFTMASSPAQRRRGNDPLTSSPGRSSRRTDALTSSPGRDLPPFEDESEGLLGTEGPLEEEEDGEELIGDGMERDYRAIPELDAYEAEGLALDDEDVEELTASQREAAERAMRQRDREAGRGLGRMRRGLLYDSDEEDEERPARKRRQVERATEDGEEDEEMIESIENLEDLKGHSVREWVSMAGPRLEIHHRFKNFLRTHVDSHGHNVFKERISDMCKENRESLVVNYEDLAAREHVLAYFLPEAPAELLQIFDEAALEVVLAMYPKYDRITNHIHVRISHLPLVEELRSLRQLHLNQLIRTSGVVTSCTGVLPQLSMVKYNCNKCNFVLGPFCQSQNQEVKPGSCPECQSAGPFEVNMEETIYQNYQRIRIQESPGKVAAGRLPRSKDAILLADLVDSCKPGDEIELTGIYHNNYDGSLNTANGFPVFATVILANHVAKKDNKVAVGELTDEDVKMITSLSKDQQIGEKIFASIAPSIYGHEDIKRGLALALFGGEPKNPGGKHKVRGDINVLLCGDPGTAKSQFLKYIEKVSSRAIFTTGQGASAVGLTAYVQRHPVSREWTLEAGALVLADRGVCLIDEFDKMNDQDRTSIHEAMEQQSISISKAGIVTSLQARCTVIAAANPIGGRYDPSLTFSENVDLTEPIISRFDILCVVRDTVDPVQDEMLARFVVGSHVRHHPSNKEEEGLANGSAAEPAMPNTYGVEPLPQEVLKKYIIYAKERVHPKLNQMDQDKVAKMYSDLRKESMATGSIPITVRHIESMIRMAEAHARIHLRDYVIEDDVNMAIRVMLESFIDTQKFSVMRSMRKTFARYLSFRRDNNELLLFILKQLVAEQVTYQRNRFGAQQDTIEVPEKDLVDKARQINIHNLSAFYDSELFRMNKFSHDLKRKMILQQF

NCI-H1975 [2] = experiment: Antitumor activity against human NCI-H1975 cells xenografted in athymic nude BALB/c mouse assessed as tumor growth inhibition at 4 mg/kg, ip administered for 4 weeks relative to control; format: functional; conditions: 672 h, read-out: TGI
[3] = molecular target: T1, DNA replication licensing factor MCM5 (Homo sapiens) (UniProt P33992); experiment: Induction of ubiquitination of MCM5 in human NCI-H1975 cells incubated for 48 hrs by immunoblot analysis (reference value: 1); format: cell-based
T1 sequence (whole entry): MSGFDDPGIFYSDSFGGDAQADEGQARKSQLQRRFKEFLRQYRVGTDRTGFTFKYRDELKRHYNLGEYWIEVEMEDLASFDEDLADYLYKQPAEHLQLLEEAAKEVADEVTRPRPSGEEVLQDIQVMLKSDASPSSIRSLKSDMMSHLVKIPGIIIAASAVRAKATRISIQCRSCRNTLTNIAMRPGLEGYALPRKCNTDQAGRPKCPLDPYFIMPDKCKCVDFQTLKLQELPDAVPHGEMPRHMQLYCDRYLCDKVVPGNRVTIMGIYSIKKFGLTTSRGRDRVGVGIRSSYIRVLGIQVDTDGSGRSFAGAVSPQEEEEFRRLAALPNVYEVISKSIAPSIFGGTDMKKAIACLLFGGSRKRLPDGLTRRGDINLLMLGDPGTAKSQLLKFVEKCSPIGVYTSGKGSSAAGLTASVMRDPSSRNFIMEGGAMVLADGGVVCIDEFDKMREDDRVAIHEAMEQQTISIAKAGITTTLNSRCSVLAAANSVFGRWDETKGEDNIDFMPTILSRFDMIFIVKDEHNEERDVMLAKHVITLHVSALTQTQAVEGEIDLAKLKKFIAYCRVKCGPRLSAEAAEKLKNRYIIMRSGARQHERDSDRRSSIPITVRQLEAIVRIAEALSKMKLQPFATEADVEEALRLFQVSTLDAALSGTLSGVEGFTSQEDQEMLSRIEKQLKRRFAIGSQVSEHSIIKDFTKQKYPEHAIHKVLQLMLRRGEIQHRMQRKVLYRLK

[4] = molecular target: DNA replication licensing factor MCM2 (Homo sapiens) (UniProt P49736); experiment: Induction of ubiquitination of MCM2 in human H3255 cells incubated for 24 hrs by immunoblot analysis; format: cell-based; conditions: NCI-H3255
[5] = molecular target: T2, DNA replication licensing factor MCM6 (Homo sapiens) (UniProt Q14566); experiment: Induction of ubiquitination of MCM6 in human NCI-H1975 cells incubated for 72 hrs by immunoblot analysis (reference value: 1); format: cell-based
T2 sequence (whole entry): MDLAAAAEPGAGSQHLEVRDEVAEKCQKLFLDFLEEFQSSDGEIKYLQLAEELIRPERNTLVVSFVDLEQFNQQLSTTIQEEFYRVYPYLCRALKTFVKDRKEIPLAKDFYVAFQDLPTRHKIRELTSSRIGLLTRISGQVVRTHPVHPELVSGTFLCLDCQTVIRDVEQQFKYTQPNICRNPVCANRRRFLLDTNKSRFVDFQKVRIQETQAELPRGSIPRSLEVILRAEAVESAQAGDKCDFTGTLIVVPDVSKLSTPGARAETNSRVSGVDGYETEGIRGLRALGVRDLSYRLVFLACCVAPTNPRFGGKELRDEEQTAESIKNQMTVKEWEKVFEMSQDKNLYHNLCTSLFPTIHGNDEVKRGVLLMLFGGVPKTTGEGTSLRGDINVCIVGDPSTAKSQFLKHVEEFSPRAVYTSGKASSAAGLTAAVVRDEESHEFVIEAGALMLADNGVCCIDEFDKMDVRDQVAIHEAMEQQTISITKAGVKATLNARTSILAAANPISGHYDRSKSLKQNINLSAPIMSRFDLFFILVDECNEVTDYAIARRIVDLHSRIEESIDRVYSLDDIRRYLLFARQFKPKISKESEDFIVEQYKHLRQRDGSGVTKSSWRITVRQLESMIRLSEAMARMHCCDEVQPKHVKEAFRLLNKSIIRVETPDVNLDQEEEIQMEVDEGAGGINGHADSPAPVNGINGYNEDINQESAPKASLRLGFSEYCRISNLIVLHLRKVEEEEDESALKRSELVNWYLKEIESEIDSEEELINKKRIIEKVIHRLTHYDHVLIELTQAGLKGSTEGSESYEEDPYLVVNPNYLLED

[6] = molecular target: DNA replication licensing factor MCM7 (Homo sapiens) (UniProt P33993); experiment: Induction of ubiquitination of MCM7 in human NCI-H1975 cells incubated for 24 hrs by immunoblot analysis (reference value: 1); format: cell-based
Chain of DNA replication licensing factor MCM7 (Homo sapiens) (P33993 whole entry): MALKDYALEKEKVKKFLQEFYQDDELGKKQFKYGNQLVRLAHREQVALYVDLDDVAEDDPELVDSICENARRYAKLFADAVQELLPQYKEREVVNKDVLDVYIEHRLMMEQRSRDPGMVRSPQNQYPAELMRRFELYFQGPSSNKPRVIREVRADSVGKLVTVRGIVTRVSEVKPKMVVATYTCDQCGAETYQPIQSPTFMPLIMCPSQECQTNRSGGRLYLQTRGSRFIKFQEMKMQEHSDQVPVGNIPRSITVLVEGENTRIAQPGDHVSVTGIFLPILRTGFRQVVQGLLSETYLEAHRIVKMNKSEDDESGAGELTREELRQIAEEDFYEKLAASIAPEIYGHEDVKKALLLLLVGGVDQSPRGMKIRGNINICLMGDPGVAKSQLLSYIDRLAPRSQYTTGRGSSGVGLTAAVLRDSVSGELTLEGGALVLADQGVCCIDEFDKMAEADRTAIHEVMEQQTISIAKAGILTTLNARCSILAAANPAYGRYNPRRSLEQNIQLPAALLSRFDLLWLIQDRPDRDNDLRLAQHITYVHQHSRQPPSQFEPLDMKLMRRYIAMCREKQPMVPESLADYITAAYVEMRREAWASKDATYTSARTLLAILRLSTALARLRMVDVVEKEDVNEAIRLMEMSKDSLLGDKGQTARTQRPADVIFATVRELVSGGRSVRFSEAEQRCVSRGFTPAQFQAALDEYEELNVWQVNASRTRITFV

NCI-H1975 [7] = experiment: Antitumor activity against human NCI-H1975 cells xenografted in athymic nude BALB/c mouse assessed as tumor growth at 4 mg/kg, ip administered for 4 weeks (reference value: 1217 +/- 516.6 cu.mm); format: functional
[8] = molecular target: DNA replication licensing factor MCM7 (Homo sapiens) (UniProt P33993); experiment: Induction of ubiquitination of MCM7 in human H3255 cells incubated for 24 hrs by immunoblot analysis; format: cell-based; conditions: NCI-H3255
NCI-H1975 [9] = experiment: Induction of apoptosis in human NCI-H1975 cells assessed as increase in cleaved caspase 3 level at 140 nM incubated upto 72 hrs by immunoblotting analysis; format: functional, cell-based
[10] = Selectivity index, ratio of IC50 for human bronchial epithelial cells to IC50 for human CL1-0 cells; format: toxicity; conditions: human bronchial epithelial cells versus CL1-0 cells, read-out: Ratio IC50
[11] = molecular target: DNA replication licensing factor MCM2 (Homo sapiens) (UniProt P49736); experiment: Induction of ubiquitination of MCM2 in human NCI-H1975 cells incubated for 24 hrs by magnetic beads technique based immunoblot analysis; format: cell-based
[12] = molecular target: DNA replication licensing factor MCM7 (Homo sapiens) (UniProt P33993); experiment: Induction of ubiquitination of MCM7 in human NCI-H1975 cells incubated for 24 hrs by immunoblot analysis; format: cell-based

## Cc1oc2c(c1C(=O)NCCCn1ccnc1)C(=O)c1ccccc1C2=O
[1]
  Activity: Active
NCI-H1975 [2]
  inhibition in vivo at 4 mg/kg: 59%
[3]
  Activity: 0.6
[4]
  Activity: Active
[5]
  Activity: 0.2
[6]
  Activity: 0.8
NCI-H1975 [7]
  Activity: 518 mm3
[8]
  Activity: Active
NCI-H1975 [9]
  Activity: Active
[10]
  selectivity ratio: > 10
[11]
  Activity: Active
[12]
  Activity: Dose-dependent effect
